Assay results reported in US20250230193A1, “CYCLIC COMPOUND HAVING SELECTIVE KRAS INHIBITORY EFFECT ON HRAS AND NRAS” (CHUGAI SEIYAKU KABUSHIKI KAISHA, priority 2022, published 2025).
*1 amine or outer side, *2 acyl side, *3 side chain or, on linkers, in order; H or OH if unused. Where a SMILES comes first, the peptide text is derived from it. Bridges are numbered along the chain shown (N, C = ends). [ ]: non-standard residue; d: D form. The star is where a group is joined. hPhe(3-Cl-4-CF3) = N[C@@H](CCc1ccc(C(F)(F)F)c(Cl)c1)C(=O)O; X23 = CC(C)CN([C@@H](Cc1ccc(C(F)(F)F)cc1)C(=O)[*:2])[*:1]; X37 = O=C([C@H](Cc1ccc(C(F)(F)F)cc1)N(CC1CCC1)[*:1])[*:2]; X43 = Cc1ccc(C[C@@H](C(=O)[*:2])N(CC2CCC2)[*:1])cc1; NMeGly(cPent) = CN[C@H](C(=O)O)C1CCCC1; NMeD = CN[C@@H](CC(=O)O)C(=O)O; NMeL = CN[C@@H](CC(C)C)C(=O)O; Morpholide = C1CN(*)CCO1; NMeA = CN[C@@H](C)C(=O)O; Ac5c = NC1(C(=O)O)CCCC1; Aze = O=C(O)[C@@H]1CCN1; Sar = CNCC(=O)O

How the values were obtained:
[1] = target: GDP-bound HRAS wild-type protein (Homo sapiens, UniProt P01112); assay: Binding to HRAS by surface plasmon resonance (SPR), Single Cycle Kinetics; settings: for HRAS/KRAS (ratio of KD value with respect to GDP-bound HRAS wild-type protein to KD value with respect to KRAS): class symbols
[2] = target: GDP-bound NRAS wild-type protein (Homo sapiens, UniProt P01111); assay: Binding to NRAS by surface plasmon resonance (SPR), Single Cycle Kinetics; settings: for NRAS/KRAS (ratio of KD value with respect to GDP-bound NRAS wild-type protein to KD value with respect to KRAS): class symbols
Chain of GDP-bound NRAS wild-type protein (P01111 whole entry): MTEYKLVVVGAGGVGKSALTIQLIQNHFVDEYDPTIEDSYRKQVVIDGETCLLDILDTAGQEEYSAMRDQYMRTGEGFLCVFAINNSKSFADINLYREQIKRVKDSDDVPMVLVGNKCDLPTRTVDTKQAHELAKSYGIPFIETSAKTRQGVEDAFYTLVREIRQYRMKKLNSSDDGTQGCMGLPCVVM

Chain of GDP-bound HRAS wild-type protein (P01112 whole entry): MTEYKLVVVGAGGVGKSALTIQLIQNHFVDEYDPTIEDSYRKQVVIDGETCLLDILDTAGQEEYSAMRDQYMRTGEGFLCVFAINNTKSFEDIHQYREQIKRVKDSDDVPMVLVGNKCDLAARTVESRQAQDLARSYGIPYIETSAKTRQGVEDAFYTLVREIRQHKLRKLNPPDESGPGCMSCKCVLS

CCC[C@H]1C(=O)N[C@@H]([C@@H](C)CC)C(=O)N(C)CC(=O)N(C)[C@H]2C/C=C\CCN(C2=O)[C@@H](Cc2ccc(C)cc2)C(=O)N(C)CC(=O)N[C@@H](CCc2ccc(C(F)(F)F)c(OC)c2)C(=O)N2C[C@H](OCC)C[C@H]2C(=O)NC2(CC(C)(C)C2)C(=O)N(C)[C@@H](CC2CCC2)C(=O)N(C)[C@H](C(=O)N(C)C)CC(=O)N1C [PP2753]
HRAS/KRAS (ratio of KD value with respect to GDP-bound HRAS wild-type protein to KD value with respect to KRAS) [1]: B (a compound having 3 or more and less than 10 is denoted as B)
NRAS/KRAS (ratio of KD value with respect to GDP-bound NRAS wild-type protein to KD value with respect to KRAS) [2]: A (a compound having 10 or more and less than 20 is denoted as A)

CC[C@H](C)[C@@H]1NC(=O)[C@H](CC(C)C)N(C)C(=O)C[C@@H](C(=O)N2CCOCC2)N(C)C(=O)[C@H](C2CCCC2)N(C)C(=O)C2(CCCC2)NC(=O)[C@@H]2CCCN2C(=O)[C@H](CCc2ccc(C(F)(F)F)c(Cl)c2)NC(=O)CN(C)C(=O)[C@H](Cc2ccc(C(F)(F)F)cc2)N(CC2CCC2)C(=O)[C@@H]2CCN2C(=O)[C@H](C)N(C)C1=O [PP0109] ([NMeL]I[NMeA][Aze][X37][Sar][hPhe(3-Cl-4-CF3)]P[Ac5c][NMeGly(cPent)][NMeD]-Morpholide; lactam N-11)
HRAS/KRAS (ratio of KD for GDP-bound HRAS wild-type to KD for KRAS) ([1]; SPR): B (a compound having 3 or more and less than 10 is denoted as B)
NRAS/KRAS (ratio of KD for GDP-bound NRAS wild-type to KD for KRAS) ([2]; SPR): C (A compound having a KD ratio of 0.1 or more and less than 3 is denoted as C)

CC[C@H](C)[C@@H]1NC(=O)[C@H](CC(C)C)N(C)C(=O)C[C@@H](C(=O)N2CCOCC2)N(C)C(=O)[C@H](C2CCCC2)N(C)C(=O)C2(CCCC2)NC(=O)[C@@H]2CCCN2C(=O)[C@H](CCc2ccc(C(F)(F)F)c(Cl)c2)NC(=O)CN(C)C(=O)[C@H](Cc2ccc(C)cc2)N(CC2CCC2)C(=O)CN(C)C(=O)CN(C)C1=O [PP0095] ([NMeL]I[Sar][Sar][X43][Sar][hPhe(3-Cl-4-CF3)]P[Ac5c][NMeGly(cPent)][NMeD]-Morpholide; lactam N-11)
HRAS/KRAS (ratio of KD for GDP-bound HRAS wild-type to KD for KRAS) ([1]; SPR): C (A compound having a KD ratio of 0.1 or more and less than 3 is denoted as C)
NRAS/KRAS (ratio of KD for GDP-bound NRAS wild-type to KD for KRAS) ([2]; SPR): C (A compound having a KD ratio of 0.1 or more and less than 3 is denoted as C)

CCO[C@@H]1C[C@H]2C(=O)NC3(CC(C)(C)C3)C(=O)N(C)[C@@H](C(CC)CC)C(=O)N(C)[C@H](C(=O)N(C)C)CC(=O)N(C)[C@@H](COC)C(=O)N[C@@H]([C@@H](C)CC)C(=O)N(C)CC(=O)N(C)[C@H]3C/C=C\CCN(C3=O)[C@@H](Cc3ccc(C(F)(F)F)cc3)C(=O)N(C)CC(=O)N[C@@H](CCc3ccc(C(F)(F)F)c(OC)c3)C(=O)N2C1 [PP2157]
HRAS/KRAS (ratio of KD value with respect to HRAS to KD value with respect to KRAS) ([1]; SPR, GDP-bound HRAS wild-type vs GDP-bound KRAS wild-type): A (a compound having 10 or more and less than 20 is denoted as A)
NRAS/KRAS (ratio of KD value with respect to NRAS to KD value with respect to KRAS) ([2]; SPR, GDP-bound NRAS wild-type vs GDP-bound KRAS wild-type): A (a compound having 10 or more and less than 20 is denoted as A)

CC[C@H](C)[C@@H]1NC(=O)[C@H](CC(C)C)N(C)C(=O)C[C@@H](C(=O)N2CCOCC2)N(C)C(=O)[C@H](C2CCCC2)N(C)C(=O)C2(CCCC2)NC(=O)[C@@H]2CCCN2C(=O)[C@H](CCc2ccc(C(F)(F)F)c(Cl)c2)NC(=O)CN(C)C(=O)[C@H](Cc2ccc(C(F)(F)F)cc2)N(CC(C)C)C(=O)CN(C)C(=O)CN(C)C1=O [PP0121] ([NMeL]I[Sar][Sar][X23][Sar][hPhe(3-Cl-4-CF3)]P[Ac5c][NMeGly(cPent)][NMeD]-Morpholide; lactam N-11)
HRAS/KRAS (ratio of KD for GDP-bound HRAS wild-type to KD for KRAS) ([1]; SPR): C (A compound having a KD ratio of 0.1 or more and less than 3 is denoted as C)
NRAS/KRAS (ratio of KD for GDP-bound NRAS wild-type to KD for KRAS) ([2]; SPR): C (A compound having a KD ratio of 0.1 or more and less than 3 is denoted as C)

CCC[C@H]1C(=O)N[C@@H]([C@@H](C)CC)C(=O)N(C)CC(=O)N(C)[C@H]2C/C=C\CCN(C2=O)[C@@H](Cc2ccc(C(F)(F)F)cc2)C(=O)N(C)CC(=O)N[C@@H](CCc2cc(F)c(C(F)F)c(F)c2)C(=O)N2C[C@H](OCC)C[C@H]2C(=O)NC2(CC(C)(C)C2)C(=O)N(C)[C@@H](C(CC)CC)C(=O)N(C)[C@H](C(=O)N(C)C)CC(=O)N1C [PP2781]
HRAS/KRAS (ratio of KD value with respect to GDP-bound HRAS wild-type protein to KD value with respect to KRAS) [1]: A (a compound having 10 or more and less than 20 is denoted as A)
NRAS/KRAS (ratio of KD value with respect to GDP-bound NRAS wild-type protein to KD value with respect to KRAS) [2]: AA (a compound having 20 or more is denoted as AA)

CCO[C@@H]1C[C@H]2C(=O)NC3(CC(C)(C)C3)C(=O)N(C)[C@@H](C3CCCC3)C(=O)N(C)[C@H](C(=O)N3CCCCC3)CC(=O)N(C)[C@@H](COC)C(=O)N[C@@H]([C@@H](C)CC)C(=O)N(C)CC(=O)N(C)[C@H]3C/C=C\CCN(C3=O)[C@@H](Cc3ccc(C(F)(F)F)cc3)C(=O)N(C)CC(=O)N[C@@H](CCc3ccc(Cl)c(Cl)c3)C(=O)N2C1 [PP2670]
HRAS/KRAS (ratio of KD value with respect to GDP-bound HRAS wild-type protein to KD value with respect to KRAS) [1]: A (a compound having 10 or more and less than 20 is denoted as A)
NRAS/KRAS (ratio of KD value with respect to GDP-bound NRAS wild-type protein to KD value with respect to KRAS) [2]: AA (a compound having 20 or more is denoted as AA)
